# From US20250170136A1, “1,2,4-TRIAZIN-3(2H)-ONE COMPOUNDS FOR THE TREATMENT OF HYPERPROLIFERATIVE DISEASES” (BAYER AKTIENGESELLSCHAFT, priority 2019, published 2025)
# Marks after values point to notes of the source that are not given here.
# How the values were obtained:
# [1] = In vivo pharmacokinetics in mice (i.v.); set-up: species or system female CD-1 mice; conditions: Mouse/female/CD1, 0.5 mg/kg i.v., PEG400 60% + Water 35% + EtOH 5%
# Procedure: (§1) For in vivo pharmacokinetic experiments test compounds were administered to female CD-1 mice, male Wistar rats, Beagle dogs or Cynomolgus monkeys intravenously at doses of 0.3 to 1 mg/kg formulated as solutions using solubilizers such as PEG400 in well-tolerated amounts.
# (§2) Studies may also have been performed as cassette administrations of up to 3 compounds given together simultaneously in low doses.
# (§3) For pharmacokinetics after intravenous administration test compounds were given in the female mice and male rat as i.v. bolus and in dogs and monkeys as short term infusion (15 min). Blood samples were taken e.g. at 2 min, 8 min, 15 min, 30 min, 45 min, 1 h, 2 h, 4 h, 6 h, 8 h and 24 h after dosing from the vena jugularis (mouse, rat) or vena saphena (dog, monkey). […] PK parameters were calculated by non-compartmental analysis using a PK calculation software (e.g. Phoenix WinNonlin®, Certara USA, Inc.).
# (§4) PK parameters derived from concentration-time profiles after i.v.: CLplasma (in L/kg/h): Total plasma clearance of test compound calculated by dose (in μg/kg) divided by area under the concentration-time curve from t=0 h to infinity (extrapolated) (AUCinf in μg*h/L); CLblood: Total blood clearance of test compound: CLplasma*Cp/Cb (in L/kg/h) with Cp/Cb being the ratio of test compound concentrations in plasma and blood. […]
# [2] = biological target: human full length PDE3A (Homo sapiens (Human), UniProt Q14432); experiment: PDE3A enzyme inhibition (3H-cAMP Scintillation Proximity Assay); type: biochemical; conditions: Sf9 cell extract, 60 min room temperature
# Procedure: (§5) The commercially available 3H-cAMP Scintillation Proximity Assay (SPA, Perkin Elmer) system was used for enzyme inhibition studies. For the determination of the in vitro effect of example compounds on the PDE3A reactions 2 μl of the respective example compound solution in DMSO (serial dilutions) were placed in wells of microtiter plates (Isoplate-96/200W; Perkin Elmer). 50 μl of a dilution of PDE3A cell extract from Sf9 cells overexpressing human full length PDE3A (SB Drug Discovery, UK) in buffer A (50 mM Tris/HCl pH 7.5, 8.3 mM MgCl2, 1.7 mM EDTA, 0.2% BSA) was added. The dilution of the PDE3A cell extract was chosen such that the reaction kinetics was linear and less than 70% of the substrate was consumed (typical dilution 1:5000). The reaction was started by addition of 50 μl (0.025 μCi) of 1:2000 in buffer A w/o BSA diluted substrate [8-3H]adenosine 3′, 5′-cyclic phosphate (1 μCi/μl; Perkin Elmer). After incubation at room temperature for 60 min, the reaction was stopped by addition of 25 μl of a suspension containing 18 mg/ml yttrium scintillation proximity beads (Perkin Elmer) in water. The microtiter plates were sealed and measured in a Microbeta scintillation counter (PerkinElmer Wallac). IC50 values were determined from sigmoidal curves by plotting percentage PDE3A activity vs log compound concentration.
# [3] = In vivo pharmacokinetics in rats (i.v.); conditions: Rat/male/Wistar, 0.5 mg/kg i.v., Plasma 95% + EtOH 4% + DMSO 1%
# Procedure: as §1, §2, §3, §4
# [4] = biological target: human full length PDE3B (Homo sapiens (Human), UniProt Q13370); experiment: PDE3B enzyme inhibition (3H-cAMP Scintillation Proximity Assay); type: biochemical; conditions: Sf9 cell extract, 60 min room temperature
# Procedure: as §5, with “PDE3B” for “PDE3A”, “1:6000).” for “1:5000).”
# [5] = tested on: IGR-37 melanoma xenograft; experiment: In vivo xenotransplantation model of human cancer; set-up: species or system mice; conditions: for T/C: IGR-37 Melanoma, mean final tumor weight treatment vs control, study end
# Description: The anti-tumor activity of Example 1, ((5S)-5-methyl-6-{3-(trifluoromethyl)-4-[3-(trifluoromethyl)-1H-pyrazol-1-yl]phenyl}-4,5-dihydro-1,2,4-triazin-3(2H)-one), was examined in murine xenotransplantation models of human cancer. For this purpose, mice were implanted subcutaneously with tumor cells. At a mean tumor size of 20-40 mm^2 animals were randomized into treatment and control groups (at least n=10 animals/group) and treatment started with vehicle only or Example 1 (formulation: 90% PEG400/10% Ethanol; application route: per os (“p.o.”), orally). The oral application volume was 10 ml/kg. In the case of twice daily treatments, the time interval between two applications per day was 6-7 h. The tumor size and the body weight were determined at least weekly. The tumor area was detected by means of an electronic caliper [length (mm)×width (mm)]. The experiment was ended when the tumors of the vehicle control reached the pre-determined ethical endpoint based on German and European animal welfare regulations. In vivo anti-tumor efficacy is presented as T/C ratio at study end (Treatment/Control; mean tumor area or weight of treatment group/mean tumor area or weight of control group) in Table 7. A compound having a T/C below 0.5 is defined as active (i.e., effective). Statistical analysis was assessed using SigmaStat software. A one-way analysis of variance was performed and differences to the control were compared by a pair-wise comparison procedure (Dunn's method).
# Chain of human full length PDE3A (Q14432 whole entry): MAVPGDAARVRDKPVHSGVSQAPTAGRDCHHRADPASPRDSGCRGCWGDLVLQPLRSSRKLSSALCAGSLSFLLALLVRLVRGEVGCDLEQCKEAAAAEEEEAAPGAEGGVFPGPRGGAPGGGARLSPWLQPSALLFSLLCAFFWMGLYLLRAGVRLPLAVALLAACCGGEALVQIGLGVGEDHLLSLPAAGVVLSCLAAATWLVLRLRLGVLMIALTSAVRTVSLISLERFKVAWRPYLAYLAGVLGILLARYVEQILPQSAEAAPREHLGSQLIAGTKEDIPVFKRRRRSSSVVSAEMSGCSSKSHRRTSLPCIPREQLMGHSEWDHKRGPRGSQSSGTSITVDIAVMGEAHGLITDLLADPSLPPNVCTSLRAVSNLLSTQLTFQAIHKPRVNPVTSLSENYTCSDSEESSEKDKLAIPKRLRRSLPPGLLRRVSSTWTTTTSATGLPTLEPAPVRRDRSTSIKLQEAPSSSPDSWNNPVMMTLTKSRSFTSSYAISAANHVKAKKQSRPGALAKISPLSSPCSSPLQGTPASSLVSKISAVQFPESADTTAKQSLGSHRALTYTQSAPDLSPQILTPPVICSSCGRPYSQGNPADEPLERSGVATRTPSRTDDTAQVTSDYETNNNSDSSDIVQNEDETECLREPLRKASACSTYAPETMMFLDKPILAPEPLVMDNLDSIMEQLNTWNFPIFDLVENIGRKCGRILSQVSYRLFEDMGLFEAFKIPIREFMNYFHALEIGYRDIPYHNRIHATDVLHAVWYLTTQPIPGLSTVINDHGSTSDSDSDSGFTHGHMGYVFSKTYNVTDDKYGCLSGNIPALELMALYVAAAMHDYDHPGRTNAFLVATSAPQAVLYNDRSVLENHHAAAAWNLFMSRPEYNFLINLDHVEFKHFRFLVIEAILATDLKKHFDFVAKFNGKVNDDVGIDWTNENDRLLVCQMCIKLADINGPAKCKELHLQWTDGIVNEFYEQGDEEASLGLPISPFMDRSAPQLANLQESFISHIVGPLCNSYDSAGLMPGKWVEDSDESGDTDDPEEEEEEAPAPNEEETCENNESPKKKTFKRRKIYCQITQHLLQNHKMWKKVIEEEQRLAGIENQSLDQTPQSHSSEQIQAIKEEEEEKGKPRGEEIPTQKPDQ
# Chain of human full length PDE3B (Q13370 whole entry): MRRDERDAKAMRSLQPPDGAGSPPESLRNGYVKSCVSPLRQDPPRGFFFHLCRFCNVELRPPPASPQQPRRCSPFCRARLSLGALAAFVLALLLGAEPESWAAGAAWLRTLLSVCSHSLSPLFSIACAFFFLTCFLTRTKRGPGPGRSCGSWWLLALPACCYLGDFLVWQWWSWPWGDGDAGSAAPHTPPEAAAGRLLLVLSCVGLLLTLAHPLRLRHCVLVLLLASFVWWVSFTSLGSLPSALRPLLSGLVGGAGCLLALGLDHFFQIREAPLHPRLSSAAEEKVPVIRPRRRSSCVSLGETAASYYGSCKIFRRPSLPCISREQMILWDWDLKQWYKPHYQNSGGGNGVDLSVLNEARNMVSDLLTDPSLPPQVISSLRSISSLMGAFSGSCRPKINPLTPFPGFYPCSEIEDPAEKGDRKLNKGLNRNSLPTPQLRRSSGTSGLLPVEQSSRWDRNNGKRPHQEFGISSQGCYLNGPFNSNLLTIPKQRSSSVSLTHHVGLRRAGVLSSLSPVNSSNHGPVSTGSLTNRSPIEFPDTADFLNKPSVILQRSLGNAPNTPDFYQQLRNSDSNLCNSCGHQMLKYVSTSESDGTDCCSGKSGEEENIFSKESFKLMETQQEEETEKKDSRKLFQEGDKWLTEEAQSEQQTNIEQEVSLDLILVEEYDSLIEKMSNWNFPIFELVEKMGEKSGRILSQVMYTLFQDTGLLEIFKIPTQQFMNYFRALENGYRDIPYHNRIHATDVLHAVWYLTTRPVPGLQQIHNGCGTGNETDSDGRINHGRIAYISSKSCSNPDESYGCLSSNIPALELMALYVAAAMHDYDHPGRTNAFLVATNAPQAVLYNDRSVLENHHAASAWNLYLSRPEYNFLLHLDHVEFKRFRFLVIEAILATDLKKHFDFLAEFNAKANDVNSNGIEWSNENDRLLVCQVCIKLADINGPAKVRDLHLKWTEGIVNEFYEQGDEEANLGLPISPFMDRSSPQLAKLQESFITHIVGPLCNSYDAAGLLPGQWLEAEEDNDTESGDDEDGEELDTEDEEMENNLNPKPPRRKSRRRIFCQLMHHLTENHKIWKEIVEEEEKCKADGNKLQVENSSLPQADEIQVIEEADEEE
smiles,measurement,setting,value
"C[C@@H]1NC(=O)NN=C1c1ccc(-n2ccc(C(F)(F)F)n2)c(C(F)(F)F)c1 [Example 1, (5S)-5-methyl-6-{3-(trifluoromethyl)-4-[3-(trifluoromethyl)-1H-pyrazol-1-yl]phenyl}-4,5-dihydro-1,2,4-triazin-3(2H)-one]",CLblood,[1],0.18 L/h/kg
same,IC50,[2],91 nM
same,CLblood,[3],0.22 L/h/kg
same,IC50,[4],81 nM
same,T/C,[5]; 1 mg/kg 2QD p.o.,0.06 *
same,T/C,[5]; 2 mg/kg 2QD p.o.,0.06 *
same,T/C,[5]; 4 mg/kg 2QD p.o.,0.06 *
same,T/C,[5]; 4 mg/kg QD p.o.,0.07 *
same,anti-tumor efficacy (reduction of tumor area),"[5]; xenograft model of human tumors, melanoma, monotherapy",effective in reduction of tumor area in melanoma
